{"source": "patent US20120270237A9", "about": "“METHODS FOR THE IDENTIFICATION OF KINASE INTERACTING MOLECULES AND FOR THE PURIFICATION OF KINASE PROTEINS” (Cellzone AG, priority 2009, published 2012)", "assay_in_all_cases": "Kinobeads competition binding, L-363 cell lysate", "parameters_in_all_cases": "endogenous in cells", "conditions_in_all_cases": "10 μM free compound, L-363 lysate", "key": {"[1]": {"target": "PLK1 (Homo sapiens, UniProt P53350)", "sequence (P53350 whole entry)": "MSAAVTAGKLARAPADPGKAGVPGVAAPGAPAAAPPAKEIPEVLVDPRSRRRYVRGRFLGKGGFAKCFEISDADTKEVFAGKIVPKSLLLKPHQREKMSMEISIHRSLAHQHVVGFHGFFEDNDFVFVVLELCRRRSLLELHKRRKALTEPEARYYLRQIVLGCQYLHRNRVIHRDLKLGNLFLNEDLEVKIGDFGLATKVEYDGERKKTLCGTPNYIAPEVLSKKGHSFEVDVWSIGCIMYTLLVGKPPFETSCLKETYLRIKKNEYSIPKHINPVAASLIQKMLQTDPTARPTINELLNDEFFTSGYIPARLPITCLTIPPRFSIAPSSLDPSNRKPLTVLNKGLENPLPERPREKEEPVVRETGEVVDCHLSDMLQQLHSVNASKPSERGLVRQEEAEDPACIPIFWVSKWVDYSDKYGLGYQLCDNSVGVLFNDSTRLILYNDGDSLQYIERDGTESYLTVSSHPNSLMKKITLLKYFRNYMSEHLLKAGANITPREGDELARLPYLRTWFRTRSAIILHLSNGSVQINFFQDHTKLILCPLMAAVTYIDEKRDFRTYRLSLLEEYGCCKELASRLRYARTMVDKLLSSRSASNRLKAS", "outline": "(§1)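 MG132-pretreated (20 μM, 3 h) L-363 lysate; 10 μM cpd vs DMSO; immobilized-cpd bead capture; SDS-PAGE, tryptic digest, iTRAQ 114/117; LC-MS/MS reporter quant.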"}, "[2]": {"target": "AMPKa1 (Homo sapiens, UniProt Q13131)", "sequence (Q13131 whole entry)": "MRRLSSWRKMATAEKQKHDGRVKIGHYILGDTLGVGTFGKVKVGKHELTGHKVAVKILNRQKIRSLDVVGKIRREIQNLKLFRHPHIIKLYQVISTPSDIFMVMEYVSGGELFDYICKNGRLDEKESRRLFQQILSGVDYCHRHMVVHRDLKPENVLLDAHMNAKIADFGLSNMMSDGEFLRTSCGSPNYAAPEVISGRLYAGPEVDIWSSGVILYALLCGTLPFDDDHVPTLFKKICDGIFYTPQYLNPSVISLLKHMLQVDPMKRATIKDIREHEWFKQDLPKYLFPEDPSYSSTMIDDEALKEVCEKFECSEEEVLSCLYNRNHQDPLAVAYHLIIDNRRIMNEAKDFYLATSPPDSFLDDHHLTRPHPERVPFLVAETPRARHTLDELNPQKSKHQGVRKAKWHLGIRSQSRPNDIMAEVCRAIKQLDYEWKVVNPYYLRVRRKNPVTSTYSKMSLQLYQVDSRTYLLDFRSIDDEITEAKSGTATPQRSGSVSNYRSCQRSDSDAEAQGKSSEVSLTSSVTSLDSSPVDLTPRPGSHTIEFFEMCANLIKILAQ", "sequence (Q9Y478 2-270 partner limits assumed)": "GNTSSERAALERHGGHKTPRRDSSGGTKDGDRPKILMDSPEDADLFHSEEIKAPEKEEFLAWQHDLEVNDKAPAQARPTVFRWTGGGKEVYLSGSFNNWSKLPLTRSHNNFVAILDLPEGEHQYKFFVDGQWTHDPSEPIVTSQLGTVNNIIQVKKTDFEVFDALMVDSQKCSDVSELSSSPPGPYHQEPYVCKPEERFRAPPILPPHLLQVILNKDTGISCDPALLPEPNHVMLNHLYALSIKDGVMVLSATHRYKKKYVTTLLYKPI", "sequence (P54619 whole entry partner)": "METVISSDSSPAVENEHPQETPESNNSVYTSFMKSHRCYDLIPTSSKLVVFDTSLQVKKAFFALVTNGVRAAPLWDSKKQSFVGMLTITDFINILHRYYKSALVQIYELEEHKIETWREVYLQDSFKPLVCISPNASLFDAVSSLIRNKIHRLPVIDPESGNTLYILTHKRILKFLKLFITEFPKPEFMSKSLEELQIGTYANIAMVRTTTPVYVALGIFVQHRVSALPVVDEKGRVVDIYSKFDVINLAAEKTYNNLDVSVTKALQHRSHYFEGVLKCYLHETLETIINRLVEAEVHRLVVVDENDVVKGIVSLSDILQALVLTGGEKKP", "outline": "as §1"}, "[3]": {"target": "T1, GCK (Homo sapiens, UniProt Q12851)", "T1 sequence (Q12851 1-820)": "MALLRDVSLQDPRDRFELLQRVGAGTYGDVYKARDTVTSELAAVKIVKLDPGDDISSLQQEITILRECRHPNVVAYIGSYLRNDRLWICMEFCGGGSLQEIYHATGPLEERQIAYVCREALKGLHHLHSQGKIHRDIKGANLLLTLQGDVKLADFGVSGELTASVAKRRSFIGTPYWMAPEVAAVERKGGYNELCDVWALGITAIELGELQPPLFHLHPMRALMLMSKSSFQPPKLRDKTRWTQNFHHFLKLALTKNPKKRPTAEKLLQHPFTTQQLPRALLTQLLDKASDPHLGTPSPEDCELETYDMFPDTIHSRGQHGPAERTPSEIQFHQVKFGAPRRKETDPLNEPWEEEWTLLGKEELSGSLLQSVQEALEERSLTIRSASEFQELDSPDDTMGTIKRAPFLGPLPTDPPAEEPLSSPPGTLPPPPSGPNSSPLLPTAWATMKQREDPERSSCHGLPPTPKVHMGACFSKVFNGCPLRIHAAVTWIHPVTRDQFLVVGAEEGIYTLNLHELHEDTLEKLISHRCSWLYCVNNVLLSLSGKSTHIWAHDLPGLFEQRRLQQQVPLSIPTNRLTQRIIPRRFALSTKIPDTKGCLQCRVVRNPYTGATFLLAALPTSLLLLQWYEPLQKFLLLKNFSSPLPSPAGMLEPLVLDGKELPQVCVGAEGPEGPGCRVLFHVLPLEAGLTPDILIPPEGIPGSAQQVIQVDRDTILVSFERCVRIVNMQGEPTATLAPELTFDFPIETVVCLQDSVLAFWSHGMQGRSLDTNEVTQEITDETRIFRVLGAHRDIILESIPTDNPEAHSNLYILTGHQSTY", "outline": "as §1"}, "[4]": {"target": "T2, MAP2K5 (Homo sapiens, UniProt Q13163)", "T2 sequence (Q13163 1-448)": "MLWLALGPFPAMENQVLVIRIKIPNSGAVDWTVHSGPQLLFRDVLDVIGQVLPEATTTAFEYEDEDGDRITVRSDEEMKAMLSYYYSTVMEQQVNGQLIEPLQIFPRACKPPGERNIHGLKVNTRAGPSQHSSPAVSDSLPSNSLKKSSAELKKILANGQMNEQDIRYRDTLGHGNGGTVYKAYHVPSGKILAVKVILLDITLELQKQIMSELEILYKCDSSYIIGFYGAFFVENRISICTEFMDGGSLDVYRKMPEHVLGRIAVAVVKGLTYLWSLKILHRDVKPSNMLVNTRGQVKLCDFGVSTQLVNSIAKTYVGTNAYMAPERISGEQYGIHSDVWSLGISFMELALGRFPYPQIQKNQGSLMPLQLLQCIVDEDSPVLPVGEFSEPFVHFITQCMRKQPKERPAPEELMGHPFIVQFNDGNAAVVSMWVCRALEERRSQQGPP", "outline": "as §1"}}, "data": [{"compound": "CS(=O)(=O)Nc1ccccc1Nc1nc(Nc2cccc(OCCN)c2)ncc1Cl", "note": "[CZC31326, N-(2-(2-(3-(2-aminoethoxy)phenylamino)-5-chloropyrimidin-4-ylamino)phenyl)methanesulfonamide]", "values": [{"measurement": "inhibition at 10 µM", "setting": "[1]", "value": 96.8, "unit": "%"}, {"measurement": "inhibition at 10 µM", "setting": "[2]", "value": 97.7, "unit": "%"}, {"measurement": "inhibition at 10 µM", "setting": "[3]", "value": 95.1, "unit": "%"}, {"measurement": "inhibition at 10 µM", "setting": "[4]", "value": 97.5, "unit": "%"}]}]}
